# Data: patent publication US6391916B1, “Enediyne derivatives” (The Hong Kong University of Science and Technology, priority 2000, dated 2002)
# Marks after values point to notes of the source that are not given here.
# Key:
# [1] = tested on: P388 mice T cell leukemia cells; assay: Cytotoxicity by MTT assay in P388 cells; type: cell-based, mouse
# Method: Cytotoxicity was assessed in P388 mice T cell leukemia cells by MTT [3-(4,5-dimethylthiazol-2-yl)-2,5-diphenyl-2H-tetrazolium bromide] assay. Cell suspension (1×10^5 cells/mL) was plated in 96 well microtiter plates at 50 μL/well and it was followed by 50 μL/well of the test compound in serially diluted concentrations. The cells were incubated at 37° C. in a humidified atmosphere containing 5% CO2 in air for 72 hours at which time the tetrazolium dye, MTT, was added. After another 3 hours incubation, 100 μL/well of acidified 2-propanol (0.04 N HCl) was added. The optical densities of the plates were measured with a microplate reader (BIO-RAD) at 570 nm. The greater the absorbance the greater the number of live cells. The results are expressed as an IC50 which is the drug concentration required to inhibit cell proliferation to 50% of that of untreated control cells. The detailed procedure is found in Mosman, J. Immunol. Methods 65:55 (1983); Ferrari et al., Immunol. Methods 131:165 (1990).
# [2] = tested on: φX174 RFI (Form I) double stranded DNA; assay: DNA cleavage of supercoiled φX174 RFI (Form I) DNA, agarose gel electrophoresis and densitometry; type: biochemical; conditions: for net DNA cut (%) / DNA cleavage potency relative to Compound A: 37° C.; for net DNA cut (%): TEA buffer pH 8.5, 20% DMSO; for DNA cleavage potency relative to Compound A: 72 hours
# Method: DNA cleavage studies on the compounds of this invention were performed by using supercoiled, covalently closed, circular φX174 RFI (Form I) double stranded DNA. Thus, a 54.3 μM/bp (micromolar per base pair) solution of φX174 RFI DNA and a compound in the indicated concentration in TEA buffer (pH 8.5) containing 20% DMSO was incubated at 37° C. for 48-72 hours and analyzed by 1% agarose gel electrophoresis to separate the various forms of DNA. DNA cleavage was indicated by the formation of nicked relaxed circular DNA (Form II) or linearized DNA (Form III), which was visualized using ethidium bromide stain. A photo picture of the gel was taken over a 365 nanometer ultra-violet light transilluminator and the relative densities of DNA bands were quantitated by a GS-700 imaging densitometer (BIO-RAD). The percentage of net DNA cleavage was calculated by the following equation:
# Net DNA Cleavage (%)={[(Form II)s+2×(Form III)s]/[(Form I)s+(Form II)s+2×(Form III)s]×100}−{(Form II)c/[(Form I)c+(Form II)c]×100}
# wherein the subscripts “s” and “c” refer to as the samples and controls, respectively.
# [3] = at 37° C.; cited from earlier work
# [4] = tested on: φX174 RFI (Form I) double stranded DNA; assay: DNA cleavage of supercoiled φX174 RFI (Form I) DNA, agarose gel electrophoresis and densitometry; type: biochemical; conditions: FIG. 1; 100 μM, pH range 7.0-8.5, 72 hours
# [5] = P388 mouse leukemia cells, 37° C., 72 h, 5% CO2
Compound,"IC50 [1, 5] [µM]",net DNA cut (%) ([2]; At 20 μM),other results
"COCC(=O)OC(/C1=C/C#CCCCCC#C1)c1ccc2ccccc2c1 (stereo not drawn) [Compound 43b, 3-[(1′-Methoxyacetoxy-1′-(2″-naphthyl))methyl]cyclodeca-3-en-1,5-diyne]",9.6,77.8[b] %,–
"CC(=O)OC1C#CCCCCC#C/C1=C\c1ccc2ccccc2c1 (stereo not drawn) [Compound 30c, (E)-3-Acetoxy-4-(2′-naphthylmethylidene)cyclodeca-1,5-diyne]",2.8,82.3[b] %,"IC50 ([1]; Mus musculus, P388 cells): 2.8 µM"
"C1#CCCCCC#CC=C1 [cyclodeca-1,5-diyn-3-ene]",–,–,half-life [3]: 18 h
"CCCCCCCC(=O)OC1C#CCCCCC#C/C1=C\c1cccc2ccccc12 (stereo not drawn) [Compound 37, (E)-4-(1′-Naphthylmethylidene)-3-(octanoyloxy)cyclodeca-1,5-diyne]",13,–,"net DNA cut (%) ([2]; At 5 μM): 4.67[d] %; DNA cleavage activity relative to Compound 32b ([2]; FIG. 5, 5 μM, pH 8.5): ca. one eighth"
"CC(=O)OC1C#CCCCCC#C/C1=C\c1ccccc1 (stereo not drawn) [Compound 29, (E)-3-Acetoxy-4-(phenylmethylidene)cyclodeca-1,5-diyne]",48,19.3[b] %,DNA cleavage activity (in words) [4]: slightly higher DNA cleavage activity in the basic pHs
"O=C(COCc1ccccc1)OC1C#CCCCCC#C/C1=C\c1cccc2ccccc12 (stereo not drawn) [Compound 38, (E)-3-(Benzyloxy)acetoxy4-(1′-naphthylmethylidene)cyclodeca-1,5-diyne]",6.7,–,net DNA cut (%) ([2]; At 5 μM): 38.6[d] %
"COCC(=O)OC(/C1=C/C#CCCCCC#C1)c1cccc2ccccc12 (stereo not drawn) [Compound 43a, 3-[(1′-Methoxyacetoxy-1′-(1″-naphthyl))methyl]cyclodeca-3-en-1,5-diyne]",3.8,67.4[b] %,–
"CC(=O)OC1C#CCCCCC#C/C1=C\c1ccccc1CO (stereo not drawn) [Compound 35a, (E)-3-Acetoxy-4-[2′-((hydroxymethyl)phenyl)methylidene]cyclodeca-1,5-diyne]",21,–,net DNA cut (%) ([2]; At 100 μM): 23.5[c] %
"COCC(=O)OC1C#CCCCCC#C/C1=C\c1ccc2ccccc2c1 (stereo not drawn) [Compound 32c, (E)-3-Methoxyacetoxy-4-(2′-naphthylmethylidene)cyclodeca-1,5-diyne]",28,71.9[b] %,–
"COc1ccc(OC)c(C(=O)OC2C#CCCCCC#C/C2=C\c2cccc3ccccc23)c1 (stereo not drawn) [Compound 40, (E)4-(1′-Naphthylmethylidene)-3-((2″,5″-dimethoxybenzoyl)oxy)cyclodeca-1,5-diyne]",17,–,"net DNA cut (%) ([2]; At 5 μM): 35.6[d] %; DNA cleavage activity (in words) ([2]; FIG. 5, 5 μM, pH 8.5): little effect as compared to the acetate in Compound 30b"
"COCC(=O)OC(C1=CC#CCCCCC#C1)c1ccccc1CO[Si](C)(C)C(C)(C)C (stereo not drawn) [Compound 45, 3-[1′-(2″-(((tert-Butyldimethyl)silyloxy)methyl)phenyl)-1′-(methoxyacetoxy)methyl]cyclodeca-3en-1,5-diyne]",12,–,net DNA cut (%) ([2]; At 100 μM): 4.13[c] %
"C1#CCCCCC#C/C(C2OCc3ccccc32)=C\1 (stereo not drawn) [Compound 51, 3-[2′,5′-Dihydrobenzofuran-2′-yl]cyclodeca-3-en-1,5-diyne]",–,–,"DNA cleavage activity (in words) ([2]; FIG. 6, 100 μM, pH 8.5): less potent than Compound 42"
"OC1C#CCCCCC#C/C1=C\c1ccccc1 (stereo not drawn) [Compound 6, (E)-4-(Phenylmethylidene)cyclodeca-1,5-diyn-3-ol]",–,–,"DNA cleavage activity (in words) [4]: less potent compared to the corresponding acetate, Compound 29"
"CCC(=O)OC1C#CCCCCC#C/C1=C\c1cccc2ccccc12 (stereo not drawn) [Compound 36, (E)-4-(1′-Naphthylmethylidene)-3-(propanoyloxy)cyclodeca-1,5-diyne]",10,–,–
COCC(=O)OC1C#CCCCCC#C/C1=C\c1ccccc1CO (stereo not drawn) [Compound 35b],16,–,net DNA cut (%) ([2]; At 100 μM): 17.6[c] %
"CC(=O)OC1C#CCCCCC#C/C1=C\c1cccc2ccccc12 (stereo not drawn) [Compound 30b, (E)-3-Acetoxy-4-(1′-naphthylmethylidene)cyclodeca-1,5-diyne]",2.4,77.7[b] %,"IC50 ([1]; Mus musculus, P388 cells): 2.4 µM; net DNA cut (%) ([2]; At 5 μM): 33.5[d] %"
"COCC(=O)OC1C#CCCCCC#C/C1=C\c1ccccc1 (stereo not drawn) [Compound 31, (E)-3-Methoxyacetoxy4-(phenylmethylidene)cyclodeca-1,5-diyne]",23,13.2[b] %,"DNA cleavage potency relative to Compound A ([2]; FIG. 2, pH 8.5): ca. 100 fold; DNA cleavage activity (in words) ([2]; FIG. 2, concentration range 5-100 μM, pH 8.5): same level of DNA cleavage activity as enediyne, Compound 42"
"COc1ccc(COCC(=O)OC2C#CCCCCC#C/C2=C\c2cccc3ccccc23)cc1 (stereo not drawn) [Compound 39, (E)-3-[(4′-Methoxybenzyl)oxy]acetoxy-4-(1″-naphthylmethylidene)cyclodeca-1,5-diyne]",97,–,net DNA cut (%) ([2]; At 5 μM): 26.1[d] %
"CC(=O)OC1C#CCCCCC#C/C1=C\c1ccccc1CO[Si](C)(C)C(C)(C)C (stereo not drawn) [Compound 34a, (E)-3-Acetoxy-4-[2′-((((tert-butyldimethyl)silyloxy)methyl)phenyl)methylidene]cyclodeca-1,5-diyne]",> 50,–,net DNA cut (%) ([2]; At 100 μM): 10.7[c] %
COCC(=O)OC(/C1=C/C#CCCCCC#C1)c1ccccc1CO (stereo not drawn) [Compound 48],8.1,–,–
"COCC(=O)OC1C#CCCCCC#C/C1=C\c1cccc2ccccc12 (stereo not drawn) [Compound 32b, (E)-3-Methoxyacetoxy-4-(1′-naphthylmethylidene)cyclodeca-1,5-diyne]",12,87.4[b] %,net DNA cut (%) ([2]; At 5 μM): 38.8[d] %
"COc1ccc(/C=C2\C#CCCCCC#CC2OC(C)=O)cc1 (stereo not drawn) [Compound 30a, (E)-3-Acetoxy-4-[(4′-methoxyphenyl)methylidene]cyclodeca-1,5-diyne]",15,86.4[b] %,–
"COc1ccc(C(O)/C2=C/C#CCCCCC#C2)cc1 (stereo not drawn) [Compound 33, 3-[1′-Hydroxy-1′-(4″-methoxyphenyl)methyl]cyclodeca-3-en-1,5-diyne]",–,–,"DNA cleavage activity (in words) ([2]; FIG. 4, 20 μM, pH 8.5): reduced DNA cleavage activity"
"COCC(=O)OC1C#CCCCCC#C/C1=C\c1ccccc1CO[Si](C)(C)C(C)(C)C (stereo not drawn) [Compound 34b, (E)-4-[2′-((((tert-butyldimethyl)silyloxy)methyl)phenyl)methylidene]-3-(methoxyacetoxy)cyclodeca-1,5-diyne]",> 50,–,net DNA cut (%) ([2]; At 100 μM): 14.4[c] %
"COCC(=O)OC(/C1=C/C#CCCCCC#C1)c1ccccc1 (stereo not drawn) [Compound 42, 3-[(1′-Methoxyacetoxy-1′-phenyl)methyl]cyclodeca-3-en-1,5-diyne]",7.7,12.9[b] %,"DNA cleavage potency relative to Compound A ([2]; FIG. 2, pH 8.5): ca. 100 fold"
"O=C(OC1C#CCCCCC#C/C1=C\c1cccc2ccccc12)c1cccc2cc3ccccc3cc12 (stereo not drawn) [Compound 41, (E)-3-[(1′-Anthracenecarbonyl)oxy]-4-(1″-naphthylmethylidene)cyclodeca-1,5-diyne]",11,–,"net DNA cut (%) ([2]; At 5 μM): 10.6[d] %; DNA cleavage activity (in words) ([2]; FIG. 5, 5 μM, pH 8.5): reduced the DNA cleaving potency"
